The values below come from patent publication US20080287511A1, “Anthelmintic Imidazol-Thiazole Derivates” (priority 2005, published 2008).

Series [1] has as its system PolyRes strain of Haemonchus contortus (resistant against levamisole, mebendazole, ivermectin and closantel). Briefly: Efficacy study of anthelmintics in in vivo H. contortus/jirds model. More on the design: species or system Haemonchus contortus in jirds (Meriones unguiculatus). The settings on record: jirds, oral; for Med. W.b. (median worm burden): treated day 11, necropsy day 14; for % Efficacy: reduction of mean worm count vs control group; for anthelmintic efficacy compared with art known compounds (A) and (B): multi-resistant strain of Haemonchus contortus, comparison in words. On the procedure:
The anthelmintic efficacy of the compounds of the present invention was evaluated in an in vivo model using unmedicated jirds (Meriones unguiculatus), inoculated three times with approximately 300 exsheated infective larvae of Haemonchus contortus (multiresistant strain), treated orally with a test compound 11 days after their first infection with H. contortus larvae, and necropsied on day 14 to count the number of recovered H. contortus worms. The anthelmintic efficacy of the art known compounds (A) and (B) was also evaluated using the same model.
Female CRW jirds aged between 28 and 35 days and weighing 30-35 g (Charles River, Sulzfeld, Germany) were used. Three jirds each were assigned randomly upon arrival to translucent polysulfone individually ventilated cages (48×37.5×21 cm) containing wood shavings. Commercial rodent chow and water were given ad libitum. Following a four-day acclimation period, the jirds were artificially infected.
A PolyRes strain of Haemonchus contortus (resistant against levamisole, mebendazole, ivermectin and closantel) was used. This strain has been maintained in artificially infected male donor lambs. Individual feces containing Haemonchus eggs were collected in fecal bags. The fecal pellets were broken, mixed with charcoal, moistened and put in an incubator for embryonation at 28° C. and 95% relative humidity. Seven days later this mixture was placed in Baermann funnels and third stage ensheathed larvae were collected after 12 hours. These larvae were rinsed with water for cleaning and disinfected with a 2% formalin solution. Such larvae can be used immediately for artificial infection or can be stored in the fridge at about 8° C. for a maximum duration of 6 months. Infective larvae (<6 months old) were exsheathed by rinsing with a 3.3 vol % commercial sodium hypochlorite solution during 10 minutes, filtered through a Buchner funnel, rinsed with water, concentrated in a Baermann funnel, and collected after 2 hours. Exsheathed larvae prepared in this manner can be used for subsequent infection of jirds or laid in a supply for extended periods by cooling in the gas over liquid nitrogen during 1 hour and storing in liquid nitrogen at −196° C.
All jirds were inoculated orally with approximately 300 exsheathed infective larvae of H. contortus per dose on three consecutive days. Inoculations were administered using a blunted 18 G dosing needle fitted to a 1 ml syringe.
Eleven days after their first infection jirds were treated with test compounds, suspended or dissolved in 0.4 ml DMSO, and the dose to be tested was administered in a volume of 0.1 ml/50 g bodyweight via a blunted 18 G dosing needle fitted to a 1 ml syringe. Control animals, included in each experiment, remained untreated. Levamisole hydrochloride, mebendazole, ivermectin and closantel were used in different dosage titration experiments to validate the model.
All jirds were starved 20 hours before necropsy and killed on day 14 past first infection by CO2 inhalation. For worm recovery their stomachs were removed, opened longitudinally, and incubated in a beaker with 20 ml digestion fluid (10 g pepsin+30 ml concentrated hydrochloric acid) at 37° C. for 3 hours. Following digestion, the stomach content was passed through a tea-strainer, the passage fluid was catched in a sieve (32 μm) and the worms were recovered with tap water. The beakers were stored in the fridge for subsequent counting.
The content of each beaker was mixed, poured over in a 6-well plate in 6 aliquots, and the worms were counted under an inverted microscope.

Regarding `O=C(Nc1cccc([C@H]2CN3CCSC3=N2)c1)C1CCCO1` (stereo partly drawn) [Co. No. 4], in series [1] (dose 5 mpk), the “Med. W.b. (median worm burden)” value came out at 5.0 and the “% Efficacy” value came out at 68.8%. In addition, in series [1] (dose 10 mpk), the “Med. W.b. (median worm burden)” value was determined as 3.0 and the “% Efficacy” value is 85.0%. In addition, the “anthelmintic efficacy compared with art known compounds (A) and (B)” value in series [1] was “better demonstrated anthelmintic efficacy than the art known compounds (A) and (B)”.

`O=C(Nc1cccc([C@H]2CN3CCSC3=N2)c1)c1ccco1` [Co. No. A, furan-2-carboxylic acid [3-(2,3,5,6-tetrahydro-imidazo[2,1-b]thiazol-6-yl)-phenyl]-amide, reference compound]: in series [1] (dose 5 mpk), the “Med. W.b. (median worm burden)” value is reported as 11.0 and the “% Efficacy” value is 35.3%. In addition, in series [1] (dose 10 mpk), the “Med. W.b. (median worm burden)” value came to 7.0 and the “% Efficacy” value came to 65.0%.

With `O=C(Nc1cccc([C@H]2CN3CCSC3=N2)c1)[C@H]1CCCO1` [Co. No. 1, (2R)-tetrahydro-furan-2-carboxylic acid (6S)-[3-(2,3,5,6-tetrahydro-imidazo[2,1-b]thiazol-6-yl)-phenyl]-amide], the melting point was in the range of 42 to 57 °C. Besides, in series [1] (dose 2.5 mpk), the “Med. W.b. (median worm burden)” value is on record as 36.0 and the “% Efficacy” value is recorded as 65.9%. In addition, in series [1] (dose 5 mpk), the “Med. W.b. (median worm burden)” value is given as 6.0 and the “% Efficacy” value is 79.3%. In series [1] (dose 10 mpk), the “Med. W.b. (median worm burden)” value worked out at 0.0 and the “% Efficacy” value is listed as 100.0%. The “anthelmintic efficacy compared with art known compounds (A) and (B)” value in series [1] was “better demonstrated anthelmintic efficacy than the art known compounds (A) and (B)”.

Take `c1cc(NCC2CCCO2)cc([C@H]2CN3CCSC3=N2)c1` (stereo partly drawn) [Co. No. B, (tetrahydrofuran-2-ylmethyl)-[3-(2,3,5,6-tetrahydro-imidazo[2,1-b]thiazol-6-yl)-phenyl]-amine, reference compound]: in series [1] (dose 5 mpk), the “Med. W.b. (median worm burden)” value was determined as 10.0 and the “% Efficacy” value was 55.6%. In series [1] (dose 10 mpk), the “Med. W.b. (median worm burden)” value is 14.0 and the “% Efficacy” value stood at 60.6%.
